Experiment [1] has as its system HCT116. Briefly: efficacy (fitted maximal change in viability relative to DMSO control); higher = less cytotoxic (negative = loss of viability). Conditions: 48 h.
For experiment [2], the system named is HCT116. Briefly: AC50 cell viability (CellTiter-Glo); higher = less potent. Conditions: 48 h.

Molecules are shown by their SMILES. Structures can show the parent of a compound that is named as a salt.
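Wherever AC50 cell viability (CellTiter-Glo) is given: HCT116 colorectal carcinoma cells screened at five concentrations per compound, luminescent viability scaled between DMSO wells and empty wells on each plate, curves fitted per compound.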
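Wherever efficacy (fitted maximal change in viability relative to DMSO control) is given: Luminescence-based viability readout, five doses per compound, normalized against on-plate DMSO and empty-well controls, followed by dose-response curve fitting for every drug.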

Consider `CONC(=O)Nc1ccc(-c2sc3c(c2CN(C)Cc2ccccc2)c(=O)n(-c2ccccc2)c(=O)n3Cc2c(F)cccc2F)cc1` [Sufugolix], for which the efficacy in experiment [1] is -35.8%. Also, the AC50 cell viability in experiment [2] was determined as 16.6 µM.
The matching figures for `Cc1cc2cc(Oc3ccnc(Nc4cccc(C[S+](=O)([O-])NCCN(C)C)c4)n3)ccc2[nH]1` [Sulfatinib]: -101% and 11.8 µM.
Take `CCN(CC)CCNC(=O)c1c(C)[nH]c(/C=C2\C(=O)Nc3ccc(F)cc32)c1C` [Sunitinib malate]: the efficacy in experiment [1] was -98.2%. This compound yielded an AC50 cell viability in experiment [2] of 3.32 µM.
The corresponding values for `Fc1ccc(-c2nc(-c3ccccc3F)[nH]c2-c2ccncc2)cc1` [TA02] are -48.4% and 16.6 µM.
The corresponding values for `COc1cc(N2CCC(N3CCN(C)CC3)CC2)ccc1Nc1ncc(Cl)c(Nc2ccccc2[S+](=O)([O-])C(C)C)n1` [TAE-684] are -110% and 1.18 µM.
The corresponding values for `CC(C)(O)CC(=O)NCCn1ccc2ncnc(Nc3ccc(Oc4cccc(C(F)(F)F)c4)c(Cl)c3)c21` [TAK-285] are -101% and 16.6 µM.
`Cc1cc(C(=O)Nc2cc(Oc3ccc4nc(NC(=O)C5CC5)cn4n3)ccc2C)n(C)n1` [TAK-593]: in experiment [1], the efficacy was -56.7%. In addition, the AC50 cell viability in experiment [2] amounted to 14.8 µM.
For the compound `CCc1nc(-c2cccc(C)c2)c(-c2ccnc(NC(=O)c3ccccc3)c2)s1` [TAK-715], the efficacy in experiment [1] was -72.7%. For the same compound, in experiment [2], the AC50 cell viability turned out to be 26.3 µM.
Regarding `CC[S+](=O)([O-])c1cccc(-c2cc(C(=O)NC3CCN(C)CC3)c(C)c3[nH]c4ncc(C)cc4c23)c1` [TAK-901], the efficacy in experiment [1] is -76.3%. The same compound had an AC50 cell viability in experiment [2] of 0.417 µM.
For the compound `CC1=N[NH]C=C1C2=CC\3=C(S2)C(=O)NC(=N3)\[C@@H]4CC5CCN4CC5` [TAK-931], the efficacy in experiment [1] is -65.2%. In experiment [2], this compound showed an AC50 cell viability of 2.63 µM.
The corresponding values for `COc1cc(C(=O)NC2CCN(C)CC2)c(F)cc1Nc1ncc2c(n1)N(C1CCCC1)CC(F)(F)C(=O)N2C` [TAK-960] are -120% and 1.32 µM.
The corresponding values for `CCc1cc(C(N)=O)ccc1-n1nc(C(C)C)c2c(-n3cnc(-c4cnn(C)c4)c3)ccnc21` [TAS-116] are -65.3% and 1.05 µM.
Turning to `Oc1ccc(-c2ccc(-c3cc(Nc4cccc(CNC5CC5)c4)[nH]n3)cc2)c(O)c1` [TCS-2312], the efficacy in experiment [1] is -77.1%. In addition, in experiment [2], the AC50 cell viability amounted to 3.32 µM.
The matching figures for `N#Cc1c(NC(=O)c2cccc3ccccc23)sc2c1CCCC2` [TCS-JNK-5a]: -61.6% and 0.417 µM.
As for `CCN1/C(=C/C(C)=O)Sc2ccc(OC)cc21` [TG-003], the efficacy in experiment [1] was -41.4%. The compound also yielded an AC50 cell viability in experiment [2] of 14.8 µM.
The matching figures for `Cc1cnc(Nc2ccc(CN3CCOCC3)cc2)nc1Nc1cccc([S+](=O)([O-])NC(C)(C)C)c1` [TG-46]: -97.9% and 2.63 µM.
On to `Cc1cnc(Nc2cccc(CN3CCOCC3)c2)nc1Nc1cccc([S+](=O)([O-])NC(C)(C)C)c1` [TG-89], for which, in experiment [1], the efficacy was -35.5%. Besides, the AC50 cell viability in experiment [2] amounted to 1.66 µM.
The matching figures for `CC(NC1=CC=CC=C1)C\2=C\C(=C/N3C(=O)\C=C(/N=C23)N4CCOCC4)C` (stereo not given) [TGX-221]: -44.2% and 18.6 µM.
The matching figures for `CN(C)C/C=C/C(=O)Nc1ccc(C(=O)Nc2cccc(Nc3ncc(Cl)c(-c4c[nH]c5ccccc45)n3)c2)cc1` [THZ1]: -67.4% and 0.0661 µM.
As for `CN(C)C/C=C/C(=O)Nc1ccc(C(=O)N2CCC[C@@H](Nc3ncc(Cl)c(-c4c[nH]c5ccccc45)n3)C2)cc1` [THZ531], the efficacy in experiment [1] was -74.2%. In experiment [2], this compound came in with an AC50 cell viability of 0.132 µM.
Consider `CN(C)C/C=C/C(=O)Nc1cccc(C(=O)Nc2cccc(Nc3ncc(Cl)c(-c4c[nH]c5ccccc45)n3)c2)c1` [THZ-2], for which the efficacy in experiment [1] is -78.8%. In experiment [2], this compound yielded an AC50 cell viability of 0.0934 µM.
In the case of `CC1=CC=CC=C1CN2C(=O)C/3=C(/CCN(CC4=CC=CC=C4)C3)N\5CC\N=C25` [TIC-10], in experiment [1], the efficacy was -62.1%. This compound came in with an AC50 cell viability in experiment [2] of 2.95 µM.
In the case of `CN1CCN(Cc2ccc(Nc3ncc(Cl)/c(=N\c4ccccc4[S+](=O)([O-])N(C)C)[nH]3)cc2)CC1` [TP-0903], in experiment [1], the efficacy is -65.8%. The same compound returned an AC50 cell viability in experiment [2] of 0.027 µM.
The corresponding values for `CC(C)(O)[C@H]1CC[C@H](Nc2ccc3ncc(-c4cccc(C(F)(F)F)c4)n3n2)CC1` [TP-3654] are -43.7% and 1.66 µM.
The corresponding values for `NC(=O)Nc1sc(-c2ccc(F)cc2)cc1C(N)=O` [TPCA-1] are -74.4% and 14.8 µM.
Take `Cc1ccc([S+](=O)([O-])N[C@@H](Cc2ccccc2)C(=O)CCl)cc1` [TPCK]: the efficacy in experiment [1] is -77.8%. Moreover, in experiment [2], the AC50 cell viability turned out to be 18.6 µM.
The matching figures for `CCC(=O)N1CCOc2c(cc(-c3cc(OC)cc(OC)c3)cc2C(=O)N[C@H]2CCCN(C)C2)C1` [TPOP-146]: -79.1% and 20.9 µM.
The matching figures for `C[C@H]1CNC(=O)c2cnn3ccc(nc23)N[C@H](C)c2cc(F)ccc2O1` [TPX-0005]: -87.5% and 2.35 µM.
The corresponding values for `Clc1ccccc1C(c1ccccc1)(c1ccccc1)n1cccn1` [TRAM-34] are -41.5% and 18.6 µM.
`CC(C)c1ccccc1Cc1cc(C(=O)Nc2ccc([S+](=O)([O-])c3ccccc3C(C)(C)C)cc2)c(O)c(O)c1O` [TW-37]: the efficacy in experiment [1] was -90.9%. This compound yielded an AC50 cell viability in experiment [2] of 20.9 µM.
As to `Nc1cccc(-c2cc3c(Oc4cccc(O)c4)ncnc3[nH]2)c1` [TWS-119], the efficacy in experiment [1] was -90.2%. In experiment [2], this compound registered an AC50 cell viability of 11.8 µM.
The corresponding values for `CC(=O)Nc1ccc(C(=O)Nc2ccccc2N)cc1` [Tacedinaline] are -69.7% and 5.9 µM.
Take `CCC(CC)C(c1ccc(Nc2nc3ccccc3s2)cc1)n1cncn1` (stereo not drawn) [Talarozole (R enantiomer)]: in experiment [1], the efficacy is -96.4%. The same compound came in with an AC50 cell viability in experiment [2] of 20.9 µM.
As for `CC/C(=C(\c1ccccc1)c1ccc(OCCN(C)C)cc1)c1ccccc1` [Tamoxifen], the efficacy in experiment [1] is -87.8%. This compound had an AC50 cell viability in experiment [2] of 15.2 µM.
The corresponding values for `COc1cc2c(N3CCN(C(=O)Nc4ccc(OC(C)C)cc4)CC3)ncnc2cc1OCCCN1CCCCC1` [Tandutinib] are -76% and 18.6 µM.
As for `C=CCNC1=C2C[C@@H](C)C[C@H](OC)[C@H](O)[C@@H](C)/C=C(\C)[C@H](OC(N)=O)[C@@H](OC)/C=C\C=C(/C)C(=O)NC(=CC1=O)C2=O` [Tanespimycin], the efficacy in experiment [1] is -65.7%. The AC50 cell viability in experiment [2] was 3.72 µM.
The corresponding values for `Cc1nc(-c2cn3c(n2)-c2ccc(-c4cnn(C(C)(C)C(N)=O)c4)cc2OCC3)n(C(C)C)n1` [Taselisib (GDC-0032)] are -77.1% and 5.9 µM.
The corresponding values for `CCCCCNC(=N)N/N=C/c1c[nH]c2ccc(OC)cc12` [Tegaserod maleate] are -92.3% and 7.42 µM.
Regarding `CNC(=O)c1cc(COc2nnc(Nc3ccc(Cl)cc3)c3ccoc23)ccn1` [Telatinib], the efficacy in experiment [1] was -70.3%. Besides, the AC50 cell viability in experiment [2] came to 20.9 µM.
With `COc1cc([C@@H]2c3cc4c(cc3[C@@H](O[C@@H]3O[C@@H]5CO[C@@H](c6cccs6)O[C@H]5[C@H](O)[C@H]3O)[C@H]3COC(=O)[C@H]23)OCO4)cc(OC)c1O` [Teniposide], in experiment [1], the efficacy was -104%. In addition, the AC50 cell viability in experiment [2] was 4.17 µM.
Consider `COc1ccc(C[C@@H](C)[C@@H](C)Cc2ccc(OC)c(OC)c2)cc1OC` [Terameprocol], for which, in experiment [1], the efficacy is -51.5%. Further, in experiment [2], the AC50 cell viability came to 1.05 µM.
Turning to `COc1cc2c(Nc3ccc(Cl)c(Cl)c3F)ncnc2cc1OC[C@@H]1C[C@@H]2CN(C)C[C@@H]2C1` [Tesevatinib], the efficacy in experiment [1] was -119%. This compound also gave an AC50 cell viability in experiment [2] of 10.5 µM.
The corresponding values for `C/C=C(/C)C(=O)O[C@H]1C(C)=C2[C@H]([C@@H]1OC(=O)CCCCCCC)[C@@](C)(OC(C)=O)C[C@H](OC(=O)CCC)[C@@]1(O)[C@H]2OC(=O)[C@@]1(C)O` [Thapsigargin] are -93.2% and 0.0525 µM.
The corresponding values for `O=C(NCc1ccccc1)c1csc(Nc2ccncn2)n1` [Thiazovivin] are -84% and 20.9 µM.
The corresponding values for `COc1ccc2cc(-c3[nH]c(-c4ccc([S+](C)[O-])cc4)nc3-c3ccncc3)ccc2c1` (stereo not given) [Tie-2 kinase Inhibitor] are -89.1% and 23.5 µM.
With `Cn1c(CCCCCCC(=O)NO)nc2cc(N(CCCl)CCCl)ccc21` [Tinostamustine], the efficacy in experiment [1] was -84.7%. Moreover, the AC50 cell viability in experiment [2] turned out to be 2.95 µM.
For `Clc1ccc(C(Cn2ccnc2)OCc2ccsc2Cl)c(Cl)c1` (stereo not given) [Tioconazole], the efficacy in experiment [1] was -84.3%. The compound also displayed an AC50 cell viability in experiment [2] of 18.6 µM.
On to `NC/1=N/C2=C([NH]C=N2)C(=S)N1` [Tioguanine], for which the efficacy in experiment [1] is -85.8%. The AC50 cell viability in experiment [2] worked out at 0.742 µM.
On to `C[N]1C=NC=C1C(N)(C2=CC=C(Cl)C=C2)C3=CC\4=C(C=C3)N(C)C(=O)\C=C4C5=CC(=CC=C5)Cl` (stereo not given) [Tipifarnib,Freebase], for which the efficacy in experiment [1] was -120%. The compound also registered an AC50 cell viability in experiment [2] of 20.9 µM.
The matching figures for `C[N]1C=NC=C1[C@@](N)(C2=CC=C(Cl)C=C2)C3=CC=C4N(C)C(=O)\C=C(\C5=CC=CC(=C5)Cl)C4=C3` [Tipifarnib]: -107% and 9.34 µM.
